According to US20150051269A1, “Drug Delivery Conjugate Capable of Controlled Release, and Use Thereof” (POSTECH ACADEMY-INDUSTRY FOUNDATION, priority 2012, published 2015):

What was measured:
[1] = Surface charge in aqueous solution (Zetasizer Nano Z); assay type: physicochemical
Protocol: (§1) To measure the sizes and surface charges of the drug delivery conjugates prepared by the method of Example 1, the surface charges and sizes of the drug delivery conjugates in an aqueous solution were measured using a surface charge measurement system (Zetasizer Nano Z) and a size measurement system (Zetasizer Nano S).

[2] = Size of drug delivery conjugates in aqueous solution (Zetasizer Nano S); assay type: physicochemical; details: diameter in aqueous solution
Protocol: as §1

CC(=O)O[C@H]1C(=O)[C@@]2(C)[C@H]([C@H](OC(=O)c3ccccc3)[C@]3(O)C[C@H](OC(=O)[C@H](O)[C@@H](NC(=O)c4ccccc4)c4ccccc4)C(C)=C1C3(C)C)[C@]1(OC(C)=O)CO[C@@H]1C[C@@H]2O [PTX, paclitaxel]
Zeta potential (mV) [1]: −39.2 ± 1.50 mV | Size (d, nm) [2]: 806.4 ± 235.9 nm
